Source: patent publication US9840512B2, “Antidiabetic bicyclic compounds” (Merck Sharp & Dohme Corp., priority 2013, dated 2017)

Target: human GPR40 (Homo sapiens, UniProt O14842)
Assay: Inositol Phosphate Turnover (IP1) Assay 2
Assay type: cell-based
Set-up: expressed in transfected cells
Settings: HEK cells stably expressing human GPR40, Table 2, read-out: Human IP1
Procedure: Human and mouse GPR40 stable cell-lines were generated in CHO cells stably expressing NFAT BLA (Beta-lactamase). A human GPR40 stable cell-line was generated in HEK cells stably expressing the aequorin expressing reporter. The expression plasmids were transfected using lipofectamine (Life Technologies) following manufacturer's instructions. Stable cell-lines were generated following drug selection.
The assay is performed in 384-well format. HEK cells stably expressing human GPR40 are plated at 15,000 cells per well in growth medium (DMEM/10% fetal calf serum). Cell plates are then incubated 16 hours at 37 degrees in a 5% CO2 incubator.
Measurement of Inositol Phosphate Turnover (IP1) is performed using the CisBio IP-One kit (Part number 62IPAPEB). After the 16 hour incubation, the cells are washed with HEPES buffer and 10 ul of stimulation buffer (prepared as described in the kit) is added to each well. In a separate plate, compounds are diluted in DMSO (400-fold over the final concentration in the assay well) and 25 nl is acoustically transferred to the appropriate well in the assay cell plate. The plates are then incubated for 60 minutes at 37 degrees. 10 ul of detection buffer (also prepared as described in the IP-One kit) is added to each well and the plates are incubated for 60 minutes in the dark. The plates are then read in a Perkin Elmer EnVision or equivalent reader able to measure FRET.

Chain of human GPR40 (O14842 whole entry): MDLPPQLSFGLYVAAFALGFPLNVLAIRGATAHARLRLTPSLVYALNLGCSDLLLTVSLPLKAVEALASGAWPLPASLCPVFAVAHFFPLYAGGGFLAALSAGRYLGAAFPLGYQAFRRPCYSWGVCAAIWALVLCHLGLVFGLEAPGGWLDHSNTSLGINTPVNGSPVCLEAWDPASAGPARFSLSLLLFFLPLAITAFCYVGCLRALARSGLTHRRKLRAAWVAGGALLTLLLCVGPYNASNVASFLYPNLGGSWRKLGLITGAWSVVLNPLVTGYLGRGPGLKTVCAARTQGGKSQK

Row | SMILES | EC50 [nM]
1 | COc1ccc(F)c(-c2ccc(C3CCc4ccc([C@H](C5CC5)[C@H](C)C(=O)O)cc4O3)cc2C(OC)C(C)(C)C)c1 (mixture of isomers) [Example 128] | 3.2
2 | COc1ccc(F)c(-c2ccc(C3CCc4ccc([C@@H](CC(=O)O)C5CC5)cc4O3)cc2)c1 (stereo partly drawn) [Example 60, (3S)-3-cyclopropyl-3-(2-(2′-fluoro-5′-methoxy-[1,1′-biphenyl]-4-yl)chroman-7-yl)propanoic acid] | 25
3 | COc1cc(-c2ccc(C3CCc4ccc([C@H](C5CC5)[C@H](C)C(=O)O)cc4O3)nc2)ccn1 (single isomer, unassigned) [Example 120b] | 1.9
4 | O=C(O)C[C@H](c1ccc2c(c1)OC(c1ccc(-c3cc(OC(F)(F)F)ccc3F)cc1)CC2)C1CC1 (some centres unmarked) [Example 76] | 650
5 | COc1cc(-c2ccc(C3CCc4ccc([C@H](C5CC5)[C@H](C)C(=O)O)cc4O3)cc2)ccn1 (single isomer, unassigned) [Example 118a] | 1.6
6 | COc1cc(-c2cnc(C3CCc4ccc([C@H](C5CC5)[C@H](C)C(=O)O)cc4O3)c(F)c2)c(F)cn1 (single isomer, unassigned) [Example 110a] | 6.8
7 | COc1ccc(F)c(-c2ccc(C3CCc4ccc(C(C)C(C)C(=O)O)cc4O3)cc2)c1 (single isomer, unassigned) [Example 143] | 252
8 | COc1cncc(-c2ccc(C3CCc4ccc([C@@H](CC(=O)O)C5CC5)cc4O3)c(F)c2)c1 (mixture of isomers) [Example 86] | 363
9 | COc1ccc(F)c(-c2ccc(C3CCc4ccc(C(C)CC(=O)O)cc4O3)cc2)c1 (single isomer, unassigned) [Example 139] | 116
10 | COc1ccc(F)c(-c2ccc(C3CCc4ccc([C@H](C5CC5)[C@H](C)C(=O)O)cc4O3)nc2C2=CCCC2(C)C)c1 (mixture of isomers) [Example 114] | 8.8
11 | COc1cc(F)cc(-c2ccc(C3CCc4ccc([C@@H](CC(=O)O)C5CC5)cc4O3)cc2)c1 (some centres unmarked) [Example 72] | 116
12 | COc1ccc(F)c(-c2ccc(C3CCc4ccc([C@@H](CC(=O)O)C5CC5)cc4O3)cc2)c1 (single isomer, unassigned) [Example 62] | 18
13 | COc1cc(-c2ccc(C3CCc4ccc([C@@H](CC(=O)O)C5CC5)cc4O3)c(F)c2)c(F)cc1F (mixture of isomers) [Example 95] | 218
14 | COc1ccc(F)c(-c2ccc(C3CCc4ccc([C@H](CC(=O)O)C5CCC5)cc4O3)cc2)c1 (single isomer, unassigned) [Example 148, (3R)-3-cyclobutyl-3-((R or S)-(2-(2′-fluoro-5′-methoxy-[1,1′-biphenyl]-4-yl)chroman-7-yl)propanoic acid] | 398
15 | COc1ccc(F)c(-c2ccc(C3CCc4ccc(C(C5CCC5)C(C)C(=O)O)cc4O3)cc2)c1 (single isomer, unassigned) [Example 156] | 209
16 | COc1ccc(F)c(-c2ccc(C3CCc4ccc([C@@H](CC(=O)O)C5CC5)cc4O3)cc2C(OC)C2CC2)c1 (mixture of isomers) [Example 126] | 14.1
17 | COc1cncc(-c2ccc(C3CCc4ccc([C@@H](CC(=O)O)C5CC5)cc4O3)c(F)c2)n1 (mixture of isomers) [Example 93] | 488
18 | COc1cccc(-c2ccc(C3CCc4ccc([C@@H](CC(=O)O)C5CC5)cc4O3)c(F)c2)c1 (mixture of isomers) [Example 90] | 10.6
19 | COc1cc(-c2cnc(C3CCc4ccc([C@H](C5CC5)[C@H](C)C(=O)O)cc4O3)c(F)c2)c(F)cn1 (single isomer, unassigned) [Example 110b] | 1.6
20 | COc1ccc(F)c(-c2ccc(C3CCc4ccc([C@H](C5CC5)[C@@H](C)C(=O)O)cc4O3)cc2)c1 (single isomer, unassigned) [Example 66] | 53
21 | COc1ccc(F)c(-c2ccc(C3CCc4ccc(C(C)C(C)C(=O)O)cc4O3)cc2)c1 (single isomer, unassigned) [Example 145] | 77
22 | C[C@H](C(=O)O)[C@H](c1ccc2c(c1)OC(c1ccc(-c3cc(O)ccc3F)cc1)CC2)C1CC1 (single isomer, unassigned) [Example 67] | 21
23 | COc1cc(-c2ccc(C3CCc4ccc([C@H](C5CC5)[C@H](C)C(=O)O)cc4O3)cc2C(OC)C(C)(C)C)ccn1 (mixture of isomers) [Example 129] | 0.5
24 | COc1ccc(F)c(-c2ccc(C3CCc4ccc([C@H](C5CC5)[C@H](C)C(=O)O)nc4O3)cc2)c1 (mixture of isomers) [Example 137] | 454
25 | COc1ccc(F)c(-c2ccc(C3CCc4ccc([C@@H](CC(=O)O)C5CC5)cc4O3)cc2C(OC)C(F)(F)F)c1 (mixture of isomers) [Example 127] | 41.5
26 | COc1ccc(F)c(-c2ccc(C3CCc4ccc(C(C)C(C)C(=O)O)cc4O3)cc2)c1 (single isomer, unassigned) [Example 146] | 270

Other lines, results leading:

Row | EC50 [nM] | SMILES
27 | 25 | COc1ccc(F)c(-c2ccc(C3CCc4ccc([C@H](C5CC5)[C@H](C)C(=O)O)cc4O3)nc2C(F)(F)F)c1 (single isomer, unassigned) [Example 111b]
28 | 263 | COc1ccc(F)c(-c2cnc(C3CCc4ccc([C@H](C5CC5)[C@H](C)C(=O)O)cc4O3)cc2OC)c1 (single isomer, unassigned) [Example 108a]
29 | 9 | COc1ccc(F)c(-c2ccc(C3CCc4ccc(C(C)C(C)C(=O)O)cc4O3)cc2)c1 (single isomer, unassigned) [Example 147a]
30 | 4.2 | COc1ccc(F)c(-c2cnc(C3CCc4ccc([C@H](C5CC5)[C@H](C)C(=O)O)cc4O3)c(C)c2)c1 (single isomer, unassigned) [Example 115a]
31 | 0.79 | COc1ccc(F)c(-c2cnc(C3CCc4ccc([C@H](C5CC5)[C@H](C)C(=O)O)cc4O3)c(F)c2)c1 (single isomer, unassigned) [Example 105b]
32 | 6 | COc1ccc(F)c(-c2ccc(C3CCc4ccc([C@H](C5CC5)[C@H](C)C(=O)O)cc4O3)nc2C(F)(F)F)c1 (single isomer, unassigned) [Example 111a]
33 | 44 | COc1ccc(F)c(-c2ccc(C3CCc4ccc([C@H](C5CC5)[C@H](C)C(=O)O)cc4O3)nc2C(OC)C(C)(C)C)c1 (single isomer, unassigned) [Example 135d]
34 | 0.9 | COc1ccc(F)c(-c2ccc(C3CCc4ccc([C@H](C5CC5)[C@H](C)C(=O)O)cc4O3)nc2)c1 (single isomer, unassigned) [Example 97a]
35 | 7.8 | COc1cc(-c2ccc(C3CCc4ccc([C@H](C5CC5)[C@H](C)C(=O)O)cc4O3)nc2C)ccn1 (single isomer, unassigned) [Example 119b]

Same assay, conditions: HEK cells stably expressing human GPR40, Table 3, read-out: Human IP1 activity

Row | EC50 [nM] | SMILES
36 | 2.2 | COc1ccc(F)c(-c2ccc(C3COc4ccc([C@H](C5CC5)[C@H](C)C(=O)O)cc4O3)nc2)c1 (single isomer, unassigned) [Example 161]
37 | 13.3 | C[C@H](C(=O)O)[C@H](c1ccc2c(c1)O[C@H](C1CN([C@H](C)c3cc(C(F)(F)F)ccc3C(F)(F)F)C1)CO2)C1CC1 [Example 189, (2S,3R)-3-((R)-3-(1-((R)-1-(2,5-bis(trifluoromethyl)phenyl)ethyl)azetidin-3-yl)-2,3-dihydrobenzo[b][1,4]dioxin-6-yl)-3-cyclopropyl-2-methylpropanoic acid]
38 | 2.6 | COc1ccc(F)c(-c2ccc(C3COc4ccc([C@H](C5CC5)[C@H](C)C(=O)O)c(F)c4O3)nc2)c1 (mixture of isomers) [Example 165]
39 | 99.6 | COc1ccc(F)c(-c2ccc([C@H]3COc4ccc([C@H](C5CC5)[C@@H](C)C(=O)O)cc4O3)cc2Cl)c1 [Example 183]
40 | 8.2 | COc1ccc(F)c(-c2ccc([C@@H]3COc4ccc([C@H](C5CC5)[C@H](C)C(=O)O)cc4O3)nc2C(F)(F)F)c1 [Example 164]
41 | 10.6 | COc1ccc(F)c(-c2ccc([C@@H]3COc4ccc([C@H](C5CC5)[C@H](C)C(=O)O)cc4O3)cc2Cl)c1 [Example 178]
42 | 8.2 | COc1ccc(F)c(-c2ccc([C@@H]3COc4ccc([C@H](C5CC5)[C@H](C)C(=O)O)cc4O3)c(C(F)(F)F)n2)c1 [Example 162, (2S,3R)-3-cyclopropyl-3-((R)-3-(6-(2-fluoro-5-methoxyphenyl)-2-(trifluoromethyl)-pyridin-3-yl)-2,3-dihydrobenzo[b][1,4]dioxin-6-yl)-2-methylpropanoic acid]
43 | 1280 | C[C@H](C(=O)O)[C@H](c1ccc2c(c1)OC(C1CN(Cc3cc(C(F)(F)F)ccc3C(F)(F)F)C1)CO2)C1CC1 (single isomer, unassigned) [Example 187]
44 | 0.17 | COc1ccc(F)c(-c2ccc(C3COc4ccc([C@H](C5CC5)[C@H](C)C(=O)O)cc4O3)cc2)c1 (some centres unmarked) [Example 170]
45 | 9.5 | COc1ccc(F)c(-c2ccc(C3COc4ccc([C@H](C5CC5)[C@H](C)C(=O)O)cc4O3)cc2OC(F)(F)F)c1 (mixture of isomers) [Example 169]
46 | 18.8 | COc1ccc(F)c(-c2ccc(C3COc4ccc([C@@H](CC(=O)O)C5CC5)cc4O3)cc2)c1 (mixture of isomers) [Example 166]
47 | 1.6 | COc1ccc(F)c(-c2ccc(C3COc4ccc([C@H](C5CC5)[C@H](C)C(=O)O)cc4O3)nc2)c1 (single isomer, unassigned) [Example 160]
